Holding throughout (type): functional
For assay [1], the system named is Rattus norvegicus. The assay can be described thus: Compound was tested for hallucinogenic activity in rats at the dose 0.37(mg/kg); Number of rats selecting the LSD lever/ number of rats responding (1/8).
The test system of assay [2] is Rattus norvegicus. The assay can be described thus: Compound was tested for hallucinogenic activity in rats at 3.65 dose(mg/kg); 0/1, highest dose tested.
For assay [3], the system named is Rattus norvegicus. The assay can be described thus: Compound was tested for hallucinogenic activity in rats at 2.19 dose(mg/kg); Number of rats selecting the LSD lever/ number of rats responding (2/8).
Assay [4] concerns Rattus norvegicus. The assay can be described thus: Compound was tested for hallucinogenic activity in rats at 0.73(mg/kg); Number of rats selecting the LSD lever/ number of rats responding (1/8).
Assay [5] deals with Rattus norvegicus. In words: Compound was tested for hallucinogenic activity in rats at 2.56 dose(mg/kg); Number of rats selecting the LSD lever/ number of rats responding (2/8).
Assay [6] concerns Rattus norvegicus. The assay can be described thus: Compound was tested for hallucinogenic activity in rats at 2.92 dose(mg/kg); Number of rats selecting the LSD lever/ number of rats responding (3/8).
Assay [7] concerns Rattus norvegicus. The assay can be described thus: Compound was tested for hallucinogenic activity in rats at 1.83 dose (mg/kg); Number of rats selecting the LSD lever/ number of rats responding (1/8).
Assay [8] concerns Rattus norvegicus. In words: Compound was tested for hallucinogenic activity in rats at the dose 0.17 mg/kg); Number of rats selecting the LSD lever/ number of rats responding (3/8).
The subject of assay [9] is Rattus norvegicus. The assay can be described thus: Compound was tested for hallucinogenic activity in rats at dose 1.46 (mg/kg); Number of rats selecting the LSD lever/ number of rats responding (1/8).
The subject of assay [10] is Rattus norvegicus. In words: Compound was tested for hallucinogenic activity in rats at 1.62 dose(mg/kg); Number of rats selecting the LSD lever/ number of rats responding (2/6).
Assay [11] concerns Rattus norvegicus. In words: Compound was tested for hallucinogenic activity in rats at the dose 0.32(mg/kg); Number of rats selecting the LSD lever/ number of rats responding (2/8).
For assay [12], the system named is Rattus norvegicus. The assay can be described thus: Compound was tested for hallucinogenic activity in rats at 0.63 dose(mg/kg); Number of rats selecting the LSD lever/ number of rats responding (2/8).
The subject of assay [13] is Rattus norvegicus. In words: Compound was tested for hallucinogenic activity in rats at 1.73 dose(mg/kg); 0/0, highest dose tested.
Assay [14] concerns Rattus norvegicus. In words: Compound was tested for hallucinogenic activity in rats at dose 1.29(mg/kg); Number of rats selecting the LSD lever/ number of rats responding (3/8).
The subject of assay [15] is Rattus norvegicus. The assay can be described thus: Compound was tested for hallucinogenic activity in rats at the dose 0.16(mg/kg); Number of rats selecting the LSD lever/ number of rats responding (1/8).
The test system of assay [16] is Rattus norvegicus. The assay can be described thus: Compound was tested for hallucinogenic activity in rats at the dose 0.17 (mg/kg).
The test system of assay [17] is Rattus norvegicus. The assay can be described thus: Compound was tested for hallucinogenic activity in rats at 0.69 dose(mg/kg); Number of rats selecting the LSD lever/ number of rats responding (1/8).
Assay [18] relates to Rattus norvegicus. In words: Compound was tested for hallucinogenic activity in rats at dose 1.38 (mg/kg); Number of rats selecting the LSD lever/ number of rats responding (3/8).
In assay [19] the test system is Rattus norvegicus. In words: Compound was tested for hallucinogenic activity in rats at 2.41 dose(mg/kg); Number of rats selecting the LSD lever/ number of rats responding (8/8).
For assay [20], the system named is Rattus norvegicus. In words: Compound was tested for hallucinogenic activity in rats at the dose 0.17(mg/kg); Number of rats selecting the LSD lever/ number of rats responding (1/8).
For assay [21], the system named is Rattus norvegicus. In words: Compound was tested for hallucinogenic activity in rats at 1.72 dose (mg/kg); Number of rats selecting the LSD lever/ number of rats responding (2/8).
In assay [22] the test system is Rattus norvegicus. The assay can be described thus: Compound was tested for hallucinogenic activity in rats at 2.07 dose(mg/kg); Number of rats selecting the LSD lever/ number of rats responding (3/8).
Assay [23] has as its system Rattus norvegicus. The assay can be described thus: Compound was tested for hallucinogenic activity in rats at the dose 0.34(mg/kg); Number of rats selecting the LSD lever/ number of rats responding (1/8).
Assay [24] deals with Rattus norvegicus. The assay can be described thus: Compound was tested for hallucinogenic activity in rats at the dose 1.38 (mg/kg).
The test system of assay [25] is Rattus norvegicus. In words: Compound was tested for hallucinogenic activity in rats at 0.32 dose(mg/kg); Number of rats selecting the LSDlever/ number of rats responding (2/8).
The test system of assay [26] is Rattus norvegicus. The assay can be described thus: Compound was tested for hallucinogenic activity in rats at the 0.63 dose(mg/kg); Number of rats selecting the LSDlever/ number of rats responding (2/8).
The test system of assay [27] is Rattus norvegicus. The assay can be described thus: Compound was tested for hallucinogenic activity in rats at the 1.29 dose(mg/kg); Number of rats selecting the LSDlever/ number of rats responding (7/8).
Assay [28] relates to Rattus norvegicus. In words: Compound was tested for hallucinogenic activity in rats at the dose 0.16 (mg/kg).
The test system of assay [29] is Rattus norvegicus. The assay can be described thus: Compound was tested for hallucinogenic activity in rats at 0.16 dose(mg/kg); Number of rats selecting the LSDlever/ number of rats responding (1/8).
Assay [30] has as its system Rattus norvegicus. In words: Compound was tested for hallucinogenic activity in rats at dose 1.72 (mg/kg); Number of rats selecting the LSD lever/ number of rats responding (4/8).
The test system of assay [31] is Rattus norvegicus. In words: Compound was tested for hallucinogenic activity in rats at the dose 0.17(mg/kg); Number of rats selecting the LSD lever/ number of rats responding […]).
Assay [32] has as its system Rattus norvegicus. The assay can be described thus: Compound was tested for hallucinogenic activity in rats at 0.69 dose(mg/kg); Number of rats selecting the LSD lever/ number of rats responding (4/8).
The test system of assay [33] is Rattus norvegicus. The assay can be described thus: Compound was tested for hallucinogenic activity in rats at the dose 0.34(mg/kg); Number of rats selecting the LSD lever/ number of rats responding (2/8).
The test system of assay [34] is Rattus norvegicus. In words: Compound was tested for hallucinogenic activity in rats at 1.82 dose (mg/kg); 0/0, highest dose tested.
Assay [35] relates to Rattus norvegicus. In words: Compound was tested for hallucinogenic activity in rats at dose 1.38(mg/kg); Number of rats selecting the LSD lever/ number of rats responding (4/8).
Assay [36] has as its system Rattus norvegicus. In words: Compound was tested for hallucinogenic activity in rats at 1.72 dose(mg/kg); Number of rats selecting the LSD lever/ number of rats responding (4/8).
For assay [37], the system named is Rattus norvegicus. In words: Compound was tested for hallucinogenic activity in rats at the dose 0.34(mg/kg); Number of rats selecting the LSD lever/ number of rats responding (3/8.
In assay [38] the test system is Rattus norvegicus. In words: Compound was tested for hallucinogenic activity in rats at 0.69 dose(mg/kg); Number of rats selecting the LSD lever/ number of rats responding (2/9).
Assay [39] concerns Rattus norvegicus. In words: Compound was tested for hallucinogenic activity in rats at 2.41 dose (mg/kg); Number of rats selecting the LSD lever/ number of rats responding (3/8).
Assay [40] concerns Rattus norvegicus. The assay can be described thus: Compound was tested for hallucinogenic activity in rats at 2.76 dose (mg/kg); Number of rats selecting the LSD lever/ number of rats responding (3/9).
The test system of assay [41] is Rattus norvegicus. The assay can be described thus: Compound was tested for hallucinogenic activity in rats at dose 1.38(mg/kg); Number of rats selecting the LSD lever/ number of rats responding (2/8).
Assay [42] concerns Rattus norvegicus. In words: Compound was tested for hallucinogenic activity in rats at 4.14 dose (mg/kg); 2/4, highest dose tested.
The test system of assay [43] is Rattus norvegicus. In words: Compound was tested for hallucinogenic activity in rats at 3.44 dose (mg/kg); Number of rats selecting the LSD lever/ number of rats responding (4/8).
The subject of assay [44] is Rattus norvegicus. In words: Compound was tested for hallucinogenic activity in rats at 2.07dose (mg/kg); Number of rats selecting the LSD lever/ number of rats responding (3/8).

With `CC[C@H](Cc1ccc2c(c1)OCO2)NC`, the Result in the assay on Rattus norvegicus [1] worked out at 1; in the assay on Rattus norvegicus [2], 0; in the assay with Rattus norvegicus [3], 2; in the assay with Rattus norvegicus [4], 1; with Rattus norvegicus [5], 2; in the assay with Rattus norvegicus [6], 3. For the same compound, the Result came to 1 in the assay on Rattus norvegicus [7], 3 in the assay with Rattus norvegicus [8] and 1 with Rattus norvegicus [9].

For `C[C@H](N)Cc1ccc2c(c1)OCO2`, the Result with Rattus norvegicus [10] is reported as 2; in the assay on Rattus norvegicus [11], 2; in the assay on Rattus norvegicus [12], 2; with Rattus norvegicus [13] it was 0; in the assay with Rattus norvegicus [14], 3; in the assay with Rattus norvegicus [15], 1.

`CC[C@H](N)Cc1ccc2c(c1)OCO2`: the ED50 in the assay on Rattus norvegicus [16] is 6 µmol/kg; in the assay with Rattus norvegicus [24] it was 1.38 mg/kg. For the same compound, the Result with Rattus norvegicus [17] came to 1; with Rattus norvegicus [18], 3; in the assay on Rattus norvegicus [19], 8; with Rattus norvegicus [20], 1; with Rattus norvegicus [21] it was 2; in the assay on Rattus norvegicus [22], 3. In the assay with Rattus norvegicus [23], the Result stood at 1.

For the compound `C[C@@H](N)Cc1ccc2c(c1)OCO2`, the Result in the assay on Rattus norvegicus [25] worked out at 2; with Rattus norvegicus [26] it was 2; in the assay on Rattus norvegicus [27] it was 7; in the assay with Rattus norvegicus [29] it was 1. Further, the 50% effective dose (ED50) in the assay with Rattus norvegicus [28] was determined as 2.94 µmol/kg.

Regarding `CN[C@@H](C)Cc1ccc2c(c1)OCO2`, the Result is given as 4 in the assay with Rattus norvegicus [30]; 2 in the assay with Rattus norvegicus [31]; 4 in the assay with Rattus norvegicus [32]; 2 in the assay with Rattus norvegicus [33]; 0 with Rattus norvegicus [34]; 4 in the assay on Rattus norvegicus [35].

On to `CN[C@H](C)Cc1ccc2c(c1)OCO2`, for which the Result in the assay on Rattus norvegicus [36] came to 4; with Rattus norvegicus [37], 3; with Rattus norvegicus [38], 2; in the assay with Rattus norvegicus [39] it was 3; in the assay with Rattus norvegicus [40], 3; with Rattus norvegicus [20], 1. Further, the Result in the assay with Rattus norvegicus [41] is listed as 2; in the assay with Rattus norvegicus [42] it was 2; with Rattus norvegicus [43], 4; in the assay with Rattus norvegicus [44] it was 3.

For the origin of these results see ChEMBL document CHEMBL1123242, “Derivatives of 1-(1,3-benzodioxol-5-yl)-2-butanamine: representatives of a novel therapeutic class” (1986).
